Test results published in US20170217956A1, “AZAINDOLE RETINOIC ACID RECEPTOR-RELATED ORPHAN RECEPTOR MODULATORS AND USES THEREOF” (INNOV17 LLC, priority 2014, published 2017).

Experiments:
Type in all cases: cell-based
Conditions in all cases: 72 h; human CD4+ T cells under TH17-polarizing conditions, 3 days, supernatant ELISA, 0.1% DMSO
[1] = test system: IL-17A; experiment: Human TH17 cytokine inhibition as measured by ELISA (IL-17A)
Method: (§1) Peripheral blood mononuclear cells (PBMCs) were sourced from freshly prepared leukocyte enriched plasma (buffy coat) from healthy donors (New York Blood Center). PBMCs were isolated by density gradient centrifugation using Ficoll-Paque™ PLUS (GE Healthcare). Human CD4+ T cells were seeded into 96-well plates (5×10^4 cells/well) and activated with plate-bound anti-human (h)-CD3 antibody and soluble h-aCD28 (both at 1 ug/ml; eBioscience) and differentiated into TH17 cells with 20 ng/mL h-IL-6, 5 ng/mL h-TGF-β1, 10 ng/mL h-IL-23 (eBioscience) and 10 ng/mL IL-1β (Miltenyi Biotec) in serum-free TexMACS Medium (Miltenyi Biotec) supplemented with 1% Penicillin/Streptomycin (Lonza) for 3 days. CD4+ T cells propagated under TH17-polarizing conditions were cultured in the presence or absence of various concentrations of compounds with a final concentration of 0.1% DMSO. Supernatants were collected and stored at −20° C. until assayed for IL-17A, IL-17F and IL-21 levels by “Ready-Set-Go” ELISA kits (eBioscience) as per manufacturer's instructions. Endpoint absorbance was read at 450 nm using a microplate reader (Perkin Elmer).

[2] = test system: IL-21; experiment: Human TH17 cytokine inhibition as measured by ELISA (IL-21)
Method: as §1

[3] = test system: IL-22; experiment: Human TH17 cytokine inhibition as measured by ELISA (IL-22)
[4] = test system: IL-17F; experiment: Human TH17 cytokine inhibition as measured by ELISA (IL-17F)
Method: as §1

Measured: IC50

C[C@H]1C[C@H](Cn2ccc3nc(-c4cn[nH]c4)ccc32)CN1C(=O)CCc1ccccc1 (racemic) [Example 40, rac.-trans-1-(4-((5-(1H-pyrazol-4-yl)-1H-pyrrolo[3,2-b]pyridin-1-yl)methyl)-2-methylpyrrolidin-1-yl)-3-phenylpropan-1-one]
< 10 µM: all assays above

C[C@@H]1C[C@H](Cn2ccc3nc(-c4cn[nH]c4)ccc32)CN1C(=O)CCc1ccccc1 (racemic) [Example 41, rac.-cis-1-(4-((5-(1H-pyrazol-4-yl)-1H-pyrrolo[3,2-b]pyridin-1-yl)methyl)-2-methylpyrrolidin-1-yl)-3-phenylpropan-1-one]
< 10 µM: [1] | [2] | [4]
